# Test results: a melting point compilation (Tetko et al.; mined from patent text by program, amines drawn as free bases though some values may be those of a salt)
row,Compound,melting point
1,O=C(NNC(=O)c1ccccc1O)c1ccccc1O,303 °C
2,COC(=O)c1cc(NC(=O)c2cc(NC(=O)c3cc(NC(=O)OC(C)(C)C)cn3C)cn2C)cn1C,134 °C
3,O=C(O)C[C@H]1CC[C@H](Cn2nc(-c3cccs3)c(Cc3cc4c(cc3Cl)OCO4)c2C(=O)O)CC1,240 °C
4,Cc1cc2n(C)c(=O)c3cnc4c(cnn4C)c3n2n1,178 to 180 °C
5,CC(=O)OC1CC2=CCC3C4CCC(C(C)CBr)C4(C)CCC3C2(C)C(OC(C)=O)C1 (stereo not drawn),75 to 76 °C
6,CN=C(NC#N)N1CC1,130 to 132 °C
7,COc1ccc(OC(=O)N2c3cc(Cl)ccc3NC(=O)[C@@H]2C)cc1,187 to 190 °C
8,O=C(Nc1ccc2ccc(Oc3ccccc3)nc2n1)C1=CSCCS1,240 °C
9,O=c1c2c(Cc3cccc(OC(F)(F)F)c3)n[nH]c2c2cccnc2n1-c1cccc(OC(F)(F)F)c1,174 to 177 °C
10,CSc1ccc2oc3ccccc3c2c1,85 to 87 °C
11,CCCCCCCCNC(=O)OCc1ccccc1[N+](=O)[O-],70 to 71 °C
12,CN(C)c1ccc(-c2nnc(S)nc2-c2ccc(N(C)C)cc2)cc1,276 to 279 °C
13,CCCn1cc(C(=O)c2cccc3ccccc23)cc1C(=O)O,145 °C
14,CCOC(=O)C1CC2=C(CO1)C(=O)C(Cl)=CC2=O (stereo not drawn),83.5 °C
15,N=C(NO)c1ccc2[nH]cc(CCN3C(=O)c4ccccc4C3=O)c2c1,168 to 170 °C
16,CN1c2ccc(C#CCO)cc2C(O)=C(C(=O)NCc2ccc(Cl)cc2)S1(=O)=O,167 to 168 °C
17,Cn1cc(-c2cc(-c3cnc4ccccc4c3)ccn2)n(-c2ccc(C(C)(C)C(N)=O)cc2)c1=O,259 °C
18,COC(=O)C1(Oc2cc(-n3c(=O)cc(C(F)(F)F)n(C)c3=O)c(F)cc2Cl)CC=CNC1=O (stereo not drawn),82.4 °C
19,COc1ccnc(CCc2nc3cc(-c4ccc(S(=O)(=O)N5CCOCC5)cc4)cnc3[nH]2)c1,210 to 212 °C
20,CC(C)=NOCc1nc2c(N)nc3cccnc3c2n1CCCNC(=O)C(C)C,195 to 197 °C

row,Compound,melting point
1,COc1ccccc1N1CCN(CCNCCCN2CC=C(c3c[nH]c4cc(Cl)ccc34)CC2)CC1,71 to 73 °C
2,CCOc1ccc(-c2c(C)c3cc(O)ccc3n2Cc2ccc(OCCN3CCCCCC3)cc2)cc1,133 to 135 °C
3,N#CC1=C(c2ccccc2)Nc2n[nH]cc2C1c1cccc2nsnc12 (stereo not drawn),258 °C
4,CS(=O)(=O)c1c(C(=O)O)ccc(F)c1F,194 °C
5,CCN1C(=O)CCCc2cc(Nc3ncc(Cl)c(N[C@H]4[C@@H](C(N)=O)[C@@H]5C=C[C@H]4C5)n3)c(OC)cc21,145 to 153 °C
6,CCc1cc(O)n(-c2ccccn2)n1,189 °C
7,CCOP(=O)(OCC)C(CC(C(=O)Nc1ccccc1)C(=O)c1ccccc1)P(=O)(OCC)OCC (stereo not drawn),104 to 105 °C
8,CC(C)(C)OC(=O)N[C@H]1CC[C@H](CC=O)CC1,61 to 63 °C
9,O=C1N(CCCOCc2ccccc2)c2ccccc2C12COc1cc3c(cc12)OCCO3 (stereo not drawn),37 to 38 °C
10,CCN(CC)CCNc1ncc2cc(-c3c(Cl)cccc3Cl)c(NC(=O)NC(C)(C)C)nc2n1,94.5 to 96.5 °C
11,COc1ccc(-c2cc(C(F)(F)F)n3ncc(C(=O)Nc4cccc(S(=O)(=O)N5CCOCC5)c4)c3n2)cc1,203 °C
12,CCc1cncc(-c2nc(C(=O)N(C)C)c3c4ccc(Cl)cc4n(C)c3n2)c1,218 to 219 °C
13,C#CCN1C(=O)COc2ccc(-c3ncc(C(F)(F)F)cc3Cl)cc21,136 to 137 °C
14,CC(C)(C)c1ccc(O)c(C2=CCCCC2)c1,90 to 93 °C
15,Cc1cc(C(N)=O)ncc1C(c1c(F)ccc(F)c1F)S(=O)(=O)CC1CC1 (stereo not drawn),222 to 223 °C
16,COCCOc1ccc(OCC2(O)CN3CCC2CC3)cc1 (stereo not drawn),93 to 95 °C
17,O=C1CS[C@@H]2[C@H](NC(=O)Cc3ccccc3)C(=O)N2C1,183 °C
18,CCCNC(C)=NC(=Nc1ccccc1)N1CCOCC1,101 to 103 °C
19,O=C1NC(Cc2ccc(OCc3ccccc3)cn2)C(=O)NC1Cc1ccccc1 (stereo not drawn),215 to 218 °C
20,O=c1cc2c(n[nH]1)-c1ccccc1SCC2,311 to 313 °C

# Now from value to compound:
row,melting point,Compound
1,104 °C,COC(=O)c1cc(CO)nn1-c1ncccc1Cl
2,249 to 255 °C,Cc1cc(CCc2c(Br)c(C)c(O)c(C)c2Br)c(Br)c(C)c1O
3,154 to 155 °C,CCCCN(C(=O)c1cnc(N2CC(C)(C)NC2=O)nc1N)c1cccc(C(F)(F)F)c1
4,107 °C,O=C(Cl)CC1(c2ccccc2)C(=O)Oc2ccc(Cl)cc21 (stereo not drawn)
5,111 to 112 °C,CN1CC(CCN2CCOCC2)c2nc3ccccc3n2C1=O (stereo not drawn)
6,174 °C,COc1ccc(CC(=O)NC(NC(=NC#N)Nc2ccccc2C)C(C)(C)C)cc1 (stereo not drawn)
7,68 to 72 °C,COC(=O)CCCC#Cc1cc(Cl)ccc1NS(=O)(=O)c1ccc2sc(C)nc2c1
8,218 °C,CC1=C(C#N)C(c2cccc3nc(-c4ccccc4)sc23)C(C(=O)OC(C)C)=C(C)N1 (stereo not drawn)
9,41.5 to 43 °C,N#Cc1nc(F)c(F)c(F)c1Cl
10,139 to 140 °C,Cn1nc(N)nc1NCCCO
11,190 to 193 °C,Cc1c(-c2cccnc2)n(CCOc2ccc(C(=O)O)cc2)c2ccccc12
12,105 to 110 °C,CCON=C(C(=O)OC)c1nccc(N)n1
13,81 to 85 °C,CCCOc1cc(C)cnc1CCCCNc1ncc(Cc2ccc(C)nc2)c(=O)[nH]1
14,141 to 143 °C,CN1c2ccccc2C(C#N)c2ccccc21
15,169 to 171 °C,CC(C)CC(=O)Nc1cccc(-c2ccnc3c(-c4cccc(Cl)c4)cnn23)c1
16,56 to 57 °C,Brc1ccc(C2OCCO2)cc1
17,112 to 113 °C,Cc1cc(C(C)(C)c2ccc(O)cc2)ccc1O

row,melting point,Compound
1,166 to 167 °C,CCCn1c2c(c3ccccc3c1=O)C(=O)c1ccccc1-2
2,64 °C,CCN(CC)C(=O)Oc1cc(-c2ccccc2)c2ccccc2n1
3,127 to 129 °C,CCNC(=N)Nc1nc2ccc(OC(F)(F)F)cc2s1
4,138 to 140 °C,CCN(CC)C(=O)c1c(S(N)(=O)=O)cc(OC)c(OC)c1C(C)C
5,128 to 130 °C,CCOC(=O)Cc1c(C(=O)OCC)[nH]c2ccc(F)cc12
6,272 °C,CCOC(=O)C1=C(N)NC2=C(C(=O)CCC2)C1c1nccc2ccccc12 (stereo not drawn)
7,105 to 106 °C,O=Cc1cccc(OCc2ccc3ccccc3c2)c1
8,203 °C,COC(=O)C1=C(C)NC(C(=N)N)=C(C(=O)OC(C)C)C1c1ccccc1[N+](=O)[O-] (stereo not drawn)
9,148 °C,Oc1ccc(-c2cocn2)cc1
10,244 to 246 °C,COc1ccc2c(c1)S(=O)(=O)c1ccccc1C(=O)N2
11,200 °C,CC1(C)CCC(C)(C)c2cc3oc(-c4ccc(CO)cc4)nc3cc21
12,113 to 115 °C,CC(=O)NCC=C1CCc2ccc3nc(CCCCc4ccccc4)oc3c21
13,56 to 57 °C,CCCCCCCCCCC(O)CNC (stereo not drawn)
14,109 to 110 °C,COCCc1nc2c(N)nc3ccccc3c2n1CCCCCCCCNS(C)(=O)=O
15,56 to 58 °C,CCCCCCCCCCCCCCOc1ccc(C(=O)OC)cc1
16,55 to 56.5 °C,COc1ccc2[nH]c(C)c(SC)c2c1
